Source: US7605165B2, “Phenylalanine derivatives” (Ajinomoto Co., Inc., priority 2002, dated 2009)

Experiments:
integrin α4β1 = biological target: T1, integrin α4β1 (Homo sapiens, UniProt P05556+P13612); test: Assessment of VCAM-1/α4β1 binding antagonist activity (Jurkat cells binding to VCAM-1); assay type: cell-based; settings: Jurkat human T cells binding to recombinant human VCAM-1; read-out: integrin VCAM/α4 binding antagonistic activity (IC50) α4β1
T1 construct: cell strain Jurkat (ATCC TIB-152) of human T cells, known to express integrin α4β1; endogenous in cells; host or cells: Jurkat (ATCC TIB-152), human T cells
Method: The capacity of a test substance antagonistic to the binding of cell strain Jurkat (ATCC TIB-152) of human T cells, known to express integrin α4β1, to VCAM-1 was determined.
(§1) 100 μl/well of a solution (500 ng/ml) of recombinant human VCAM-1 (R & D systems) solution diluted with buffer A (0.1 M NaHCO3, pH 9.6) was added to a micro titer plate having 96 wells (Nunc Maxisorp). After the incubation at 4° C. overnight, unbound VCAM-1 was removed by washing once with PBS. After completion of the washing, a buffer (buffer B) obtained by diluting Block Ace (Dainippon Pharmaceutical Co., Ltd.) with PBS to 1/4 concentration was added in an amount of 150 μl/well. After the incubation at room temperature for 1 hour, buffer B was removed and the plate was washed with PBS once.
Jurkat cells were washed with Dulbecco modified Eagle medium (SIGMA, hereinafter referred to as “DMEM”) twice and then incubated in DMEM containing 10 μg/ml of Calcein-AM (Wako Pure Chemical Industries, Ltd.) at 37° C. in dark place for 30 minutes to label with fluorescence. The cells were again suspended in a binding buffer (20 mM HEPES, DMEM containing 0.1% BSA).
(§2) 50 μl of a test substance of various concentrations obtained by the dilution with the binding buffer was added to the plate. Immediately thereafter, 50 μl (final volume: 100 μl/well) of the fluorescent Jurkat cells (4×10^6 cells/ml) were added thereto, and they were incubated in dark place at room temperature for 30 minutes. After the shaking on a plate shaker (IKA MTS-4) at 800 rpm for 30 seconds, the solution was immediately removed to remove the unbound cells. The fluorescence quantity of the bound cells remaining in the wells was determined with a fluorescent plate reader (Wallac 1420 ARVO multi-label counter) (filter excitation wave length: 485 nm, emission wave length: 535 nm). The fluorescent strength thus obtained is proportional to the number of Jurkat cells bound to VCAM-1 and remaining on the plate. The binding rate of each test material in various concentrations was determined while the fluorescent strength of the test material-free well was determined to be 100%.

integrin α4β7 = biological target: T2, integrin α4β7 (Homo sapiens, UniProt P13612+P26010); test: Assessment of VCAM-1/α4β7 binding antagonistic activity (RPMI-8866 cells binding to VCAM-1); assay type: cell-based; settings: RPMI-8866 human B lymphoma cells binding to recombinant human VCAM-1, binding buffer with 4 mM MnCl2; read-out: integrin VCAM/α4 binding antagonistic activity (IC50) α4β7
T2 construct: lymphoma cell strain RPMI-8866 of human B cells, known to express integrin α4β7; endogenous in cells; host or cells: RPMI-8866, human B-cell lymphoma line
T2 sequence (P13612 34-1032): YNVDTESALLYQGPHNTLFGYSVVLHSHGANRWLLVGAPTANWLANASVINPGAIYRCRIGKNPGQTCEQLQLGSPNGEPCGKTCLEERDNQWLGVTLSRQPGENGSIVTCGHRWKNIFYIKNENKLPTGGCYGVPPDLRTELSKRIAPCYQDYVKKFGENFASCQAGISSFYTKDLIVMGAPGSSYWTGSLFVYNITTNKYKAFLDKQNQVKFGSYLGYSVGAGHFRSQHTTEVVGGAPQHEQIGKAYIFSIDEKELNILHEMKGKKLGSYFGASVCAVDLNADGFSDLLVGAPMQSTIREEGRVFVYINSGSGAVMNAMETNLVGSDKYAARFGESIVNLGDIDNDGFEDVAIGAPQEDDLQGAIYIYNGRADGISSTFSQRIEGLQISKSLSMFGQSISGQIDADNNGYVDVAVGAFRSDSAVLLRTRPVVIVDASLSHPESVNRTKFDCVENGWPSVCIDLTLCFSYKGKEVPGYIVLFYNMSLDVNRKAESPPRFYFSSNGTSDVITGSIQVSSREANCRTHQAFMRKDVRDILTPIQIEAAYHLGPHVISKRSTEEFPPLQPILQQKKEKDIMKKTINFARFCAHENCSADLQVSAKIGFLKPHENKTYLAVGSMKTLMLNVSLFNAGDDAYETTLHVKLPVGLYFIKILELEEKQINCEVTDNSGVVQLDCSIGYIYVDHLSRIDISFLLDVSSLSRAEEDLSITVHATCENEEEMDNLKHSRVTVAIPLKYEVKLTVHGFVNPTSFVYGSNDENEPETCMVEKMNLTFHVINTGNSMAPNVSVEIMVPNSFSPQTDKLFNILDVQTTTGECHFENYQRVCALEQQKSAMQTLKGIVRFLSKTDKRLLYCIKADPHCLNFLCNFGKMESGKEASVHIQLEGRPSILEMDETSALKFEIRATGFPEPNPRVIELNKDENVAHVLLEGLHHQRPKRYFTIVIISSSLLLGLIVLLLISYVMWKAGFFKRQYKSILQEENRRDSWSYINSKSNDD
T2 sequence (P26010 20-798): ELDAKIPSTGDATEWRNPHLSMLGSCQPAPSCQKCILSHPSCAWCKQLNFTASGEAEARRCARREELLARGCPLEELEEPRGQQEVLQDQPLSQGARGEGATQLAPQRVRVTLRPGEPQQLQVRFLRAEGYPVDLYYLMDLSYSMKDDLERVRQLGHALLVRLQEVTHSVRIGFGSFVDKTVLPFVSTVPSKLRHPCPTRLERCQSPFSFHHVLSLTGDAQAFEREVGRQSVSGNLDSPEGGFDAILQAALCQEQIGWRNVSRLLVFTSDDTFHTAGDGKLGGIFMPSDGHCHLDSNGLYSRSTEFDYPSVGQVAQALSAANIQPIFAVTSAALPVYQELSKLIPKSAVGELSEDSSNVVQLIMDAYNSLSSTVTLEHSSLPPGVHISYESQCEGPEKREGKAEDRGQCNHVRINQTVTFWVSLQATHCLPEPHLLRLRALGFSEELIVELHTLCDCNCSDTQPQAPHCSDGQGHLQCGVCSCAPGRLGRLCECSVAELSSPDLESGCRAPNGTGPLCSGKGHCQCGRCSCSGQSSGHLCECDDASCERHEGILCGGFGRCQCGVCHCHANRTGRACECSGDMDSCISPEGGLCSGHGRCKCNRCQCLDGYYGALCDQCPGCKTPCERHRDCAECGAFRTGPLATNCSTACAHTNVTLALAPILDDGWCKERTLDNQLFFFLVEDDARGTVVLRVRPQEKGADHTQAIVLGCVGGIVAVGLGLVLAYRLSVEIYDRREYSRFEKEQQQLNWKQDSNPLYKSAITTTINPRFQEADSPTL
Method: The capacity of a test substance antagonistic to the binding of lymphoma cell strain RPMI-8866 of human B cells, known to express integrin α4β7, to VCAM-1 was determined.
as §1
RPMI-8866 cells were washed with DMEM twice and incubated in Dulbecco modified Eagle medium containing 10 μg/ml of Calcein-AM (Wako Pure Chemical Industries, Ltd.) (SIGMA, hereinafter referred to as “DMEM”) in dark place at 37° C. for 30 minutes to label with fluorescence. The cells were again suspended in a binding buffer (20 mM HEPES, DMEM containing 0.1% BSA) containing 4 mM of MnCl2.
as §2, with “RPMI-8866” for “Jurkat”

T1 sequence (P05556 21-798, one chain of several): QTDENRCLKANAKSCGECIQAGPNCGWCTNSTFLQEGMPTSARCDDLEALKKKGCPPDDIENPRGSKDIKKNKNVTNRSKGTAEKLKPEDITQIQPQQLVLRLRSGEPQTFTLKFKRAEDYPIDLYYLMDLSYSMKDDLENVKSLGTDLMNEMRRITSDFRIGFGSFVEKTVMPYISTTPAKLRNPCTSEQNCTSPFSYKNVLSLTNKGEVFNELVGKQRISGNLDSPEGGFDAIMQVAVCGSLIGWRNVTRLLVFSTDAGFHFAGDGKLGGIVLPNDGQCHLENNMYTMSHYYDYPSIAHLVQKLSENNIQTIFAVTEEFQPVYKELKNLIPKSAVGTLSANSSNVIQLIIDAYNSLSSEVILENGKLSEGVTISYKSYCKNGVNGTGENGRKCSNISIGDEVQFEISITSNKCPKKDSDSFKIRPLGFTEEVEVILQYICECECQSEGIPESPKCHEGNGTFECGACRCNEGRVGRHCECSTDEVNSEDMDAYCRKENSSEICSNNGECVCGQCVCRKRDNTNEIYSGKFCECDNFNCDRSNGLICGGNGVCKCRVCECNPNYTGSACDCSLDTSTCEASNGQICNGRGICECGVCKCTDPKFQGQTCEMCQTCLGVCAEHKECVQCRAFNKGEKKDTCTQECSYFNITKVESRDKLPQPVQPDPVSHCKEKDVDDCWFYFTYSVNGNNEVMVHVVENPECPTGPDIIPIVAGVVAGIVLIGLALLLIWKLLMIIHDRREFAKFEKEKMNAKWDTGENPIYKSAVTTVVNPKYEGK

Row | SMILES | IC50 (integrin α4β1) [nM] | IC50 (integrin α4β7) [nM]
1 | Cc1ccc(Cn2c(=O)n(-c3ccc(C[C@H](NC(=O)c4c(Cl)cccc4Cl)C(=O)O)cc3)c(=O)c3ccccc32)cc1 [compound 118] | 385 | 16
2 | O=C(N[C@@H](Cc1ccc(-n2c(=O)c3ccccc3n(Cc3ccccc3Cl)c2=O)cc1)C(=O)O)c1c(Cl)cccc1Cl [compound 119] | 440 | 21
3 | Cc1ccccc1Cn1c(=O)n(-c2ccc(C[C@H](NC(=O)c3c(Cl)cccc3Cl)C(=O)O)cc2)c(=O)c2ccccc21 [compound 120] | 500 | 24
4 | O=C(N[C@@H](Cc1ccc(-n2c(=O)c3ccccc3n(Cc3c(F)cccc3Cl)c2=O)cc1)C(=O)O)c1c(Cl)cccc1Cl [compound 121] | 109 | 14
5 | O=C(N[C@@H](Cc1ccc(-n2c(=O)c3ccccc3n(Cc3ccccc3)c2=O)cc1)C(=O)O)c1c(Cl)cccc1Cl [compound 122] | 310 | 0.6
6 | CC(C)CNc1nc2ccccc2c(=O)n1-c1ccc(C[C@H](NC(=O)c2c(Cl)cccc2Cl)C(=O)O)cc1 [compound 126] | 1580 | 70
7 | CCN(C)c1nc2ccccc2c(=O)n1-c1ccc(C[C@H](NC(=O)c2c(Cl)cccc2Cl)C(=O)O)cc1 [compound 129] | 2020 | 76.4
8 | Cn1c(=O)n(-c2ccc(C[C@H](NC(=O)c3c(Cl)cccc3C(F)(F)F)C(=O)O)cc2)c(=O)c2ccccc21 [compound 164] | 120 | 7.1
9 | Cn1c(=O)n(-c2ccc(C[C@H](NC(=O)c3c(Cl)cccc3Br)C(=O)O)cc2)c(=O)c2ccccc21 [compound 165] | 11 | 0.6
10 | Cn1c(=O)n(-c2ccc(C[C@H](NC(=O)c3c(Cl)cncc3Cl)C(=O)O)cc2)c(=O)c2ccccc21 [compound 169] | 6 | 0.5
